According to PMC9769502 (Microbiology Spectrum, 2022):
Like-named read-outs stand apart in the source and are kept apart here. No end group written: not given here.

How the values were obtained:
[1] = test system: Leishmania donovani axenic amastigotes
Method: We utilized a previously developed high-throughput screening assay using transgenic axenic amastigotes expressing a red fluorescent protein, mCherry. Changes in mCherry fluorescence were normalized to 50 μM miltefosine in order to quantify parasite inhibition ([52]). In total, 5 scaffold 25-mer peptides and 475 synthetic 25-mer peptide variants were screened (Fig. 1). […] The assay was repeated, and the average percent parasite killing was determined.
Axenic amastigotes were differentiated as described previously ([69]).
Axenic amastigotes were differentiated as described previously ([69]); briefly, transgenic L. donovani promastigotes expressing mCherry were differentiated by pH and temperature shifts. Amastigotes were seeded into 96-well plates at 5 × 10^6 cells/mL and incubated for 48 h in the presence of decreasing drug concentrations, starting at 20 μM, along with the appropriate solvent controls. Fluorescence was monitored (587-nm excitation/610-nm emission) over 48 h using a FlexStation 3 benchtop multimode reader (Molecular Devices). […] Thus, changes in mCherry fluorescence were normalized to the 50 μM miltefosine control in order to quantify parasite inhibition. Each assay was performed in triplicate. The IC50 values were calculated by nonlinear regression analysis using GraphPad Prism 9.0 for Windows.

THP-1 macrophages = test: Cytotoxicity against THP-1 macrophages (CellTiter-Blue); type: cell-based, human
Method: THP-1 (human acute monocytic leukemia-derived) host macrophages were cultured in RPMI 1640 supplemented with 10% FCS and a penicillin-streptomycin antibiotic solution (10,000 U/mL penicillin, 10,000 μg/mL streptomycin) at 37°C with 5% CO2. THP-1 cells were incubated with 0.25 μM phorbol 12-myristate […] (PMA) for 48 h to differentiate into mature macrophages. Differentiated macrophages were seeded into 96-well plates at 5 × 10^6 cells/mL and incubated for 48 h in the presence of 20 μM antimicrobial peptides along with the appropriate solvent controls. Cell viability assays were conducted using CellTiter-Blue (Promega), based on resazurin reduction. After the 48-h incubation period, CellTiter-Blue reagent was added to cells for 4 h at 37°C, and fluorescence was measured (555-nm excitation/580-nm emission) using a FlexStation 3 benchtop multimode reader (Molecular Devices). Each assay was performed in triplicate. The CC50 values were calculated by nonlinear regression analysis using GraphPad Prism 9.0 for Windows.

[2] = read-out: Axenic amastigotes Mean IC50 ± SD, L. donovani mCherry axenic amastigotes, 48 h, fluorescence normalized to 50 μM miltefosine, highest concentration 20 μM, mean of three replicates
[3] = read-out: Axenic amastigotes Mean IC50 ± SD

AGAQRLTLYLKEELRKRWKKAFIAW [Syn-xiamencin-18]
IC50 [1, 2]: 0.65 µM
THP-1 macrophage CC50 (THP-1 macrophages): < 20 µM

WGTEKIRQFLKKKIQEKGKRATIAW [Syn-larvacin-10]
IC50 [1, 2]: 0.27 µM
THP-1 macrophage CC50 (THP-1 macrophages): below 20 μM

AGKETIRQYLKNKIKKKWRKAVIAW [Syn-safencin-51]
IC50 [1, 2]: 6.36 µM
THP-1 macrophage CC50 (THP-1 macrophages): < 20 µM

AGRQALWLYLKEELRKRGKIAFKAW [Syn-xiamencin-46]
IC50 [1, 3]: 11.8 µM
THP-1 macrophage CC50 (THP-1 macrophages): < 20 µM

AGKEKIRQYLKNEIKKKGRKWVIAW [Syn-safencin-61]
IC50 [1, 2]: 3.56 µM
THP-1 macrophage CC50 (THP-1 macrophages): < 20 µM

AGRQALTLYLKEELRKRWKIAFKAW [Syn-xiamencin-22]
IC50 [1, 2]: 2.21 µM
THP-1 macrophage CC50 (THP-1 macrophages): < 20 µM

AGKETIRQFLKKKIQEKGKRATIWW [Syn-larvacin-65]
IC50 [1, 2]: 0.31 µM
THP-1 macrophage CC50 (THP-1 macrophages): < 20 µM

AGKETIRQFLKKTIQEKGKRAKIWW [Syn-larvacin 69]
IC50 ([1]; 48 h): 4.14 ± 0.11 µM
THP-1 macrophage CC50 (THP-1 macrophages): > 20 µM
THP-1 macrophage CC50 (THP-1 macrophages; 48 h): >20 µM

AGANRLTKELLEYLRKFWKIARKAW [Syn-xiamencin-24]
IC50 [1, 2]: 1.63 µM
THP-1 macrophage CC50 (THP-1 macrophages): < 20 µM

AGKETIRQYLKNEIKKKGRKAVIWW [Syn-safencin-81]
IC50 [1, 2]: 3.15 µM
THP-1 macrophage CC50 (THP-1 macrophages): < 20 µM

AGRQALTLELKEYLRKRGKKWFIAW [Syn-xiamencin-35]
THP-1 macrophage CC50 (THP-1 macrophages): < 20 µM

AGKETIRWFLKKKIWEGKKRATIAW [Syn-larvacin-52]
IC50 [1, 2]: 1.86 µM
THP-1 macrophage CC50 (THP-1 macrophages): < 20 µM

AGTEKIFQRLKKTIQEWKKIAKRAW [Syn-larvacin-47]
IC50 [1, 2]: 1.1 µM
THP-1 macrophage CC50 (THP-1 macrophages): < 20 µM

AWKETIRQFLKKTIQEKGKRAKIAW [Syn-larvacin-37]
IC50 [1, 2]: 0.29 µM
THP-1 macrophage CC50 (THP-1 macrophages): < 20 µM

AGTEKIFQRLKKTIQEGKKIAKRAW [Syn-larvacin-7]
IC50 [1, 2]: 5.61 µM
THP-1 macrophage CC50 (THP-1 macrophages): below 20 μM

AGKETIRKYLKNEIKKKGRKAVIAW [Syn-safencin 6]
IC50 ([1]; 48 h): 0.48 ± 0.07 µM
THP-1 macrophage CC50 (THP-1 macrophages): > 20 µM
THP-1 macrophage CC50 (THP-1 macrophages; 48 h): >20 µM

AGKETIRQFLKKKIQEKGKIATRWW [Syn-larvacin-70]
IC50 [1, 2]: 0.3 µM
THP-1 macrophage CC50 (THP-1 macrophages): < 20 µM

AGRQWLTLELKEYLRKRGKKAFIAW [Syn-xiamencin-51]
IC50 [1, 2]: 3.66 µM
THP-1 macrophage CC50 (THP-1 macrophages): < 20 µM

AGKEWIFQRLKKKIQEKGKRATIAW [Syn-larvacin-19]
IC50 [1, 2]: 0.73 µM
THP-1 macrophage CC50 (THP-1 macrophages): < 20 µM

WGKETIRQKLKNEIKKKGRKAVIAW [Syn-safencin-15]
IC50 [1, 2]: 1.71 µM
THP-1 macrophage CC50 (THP-1 macrophages): below 20 μM

AGKETIRQFLKKKIQEGKKRATIWW [Syn-larvacin-68]
IC50 [1, 2]: 1.31 µM
THP-1 macrophage CC50 (THP-1 macrophages): < 20 µM

AWKETIRQYLKNKIKKKWRKAVIAW [Syn-safencin-91]
IC50 [1, 2]: 0.6 µM
THP-1 macrophage CC50 (THP-1 macrophages): < 20 µM

AGKEKIRKKWKNEIKKKGRKAVIAW [Syn-safencin-40]
IC50 [1, 2]: 2.12 µM
THP-1 macrophage CC50 (THP-1 macrophages): < 20 µM

AGKKTIRQYWKNKIKKKGRKAVIAW [Syn-safencin-36]
IC50 [1, 2]: 1.29 µM
THP-1 macrophage CC50 (THP-1 macrophages): < 20 µM

AGAQRLTKELLEYLRKFGKIWRKAW [Syn-xiamencin-39]
IC50 [1, 3]: 6.81 µM
THP-1 macrophage CC50 (THP-1 macrophages): < 20 µM

AGKETIFWRLKKKIWEKGKRATIAW [Syn-larvacin-51]
IC50 [1, 2]: 0.42 µM
THP-1 macrophage CC50 (THP-1 macrophages): < 20 µM

AGKEKIRQFLKKTIQEKGKRAKIAW [Syn-larvacin-77]
IC50 [1, 2]: 10.3 µM
THP-1 macrophage CC50 (THP-1 macrophages): < 20 µM

AGRQALWLYLKEELRKFGKKARIAW [Syn-xiamencin-45]
IC50 [1, 3]: 6.13 µM
THP-1 macrophage CC50 (THP-1 macrophages): < 20 µM

WGKETIRQFLKKKIQEKGKIATRAW [Syn-larvacin 14]
IC50 ([1]; 48 h): 3.89 ± 0.1 µM
THP-1 macrophage CC50 (THP-1 macrophages): > 20 µM
THP-1 macrophage CC50 (THP-1 macrophages; 48 h): >20 µM

AGKEKIRKKLKNEIKKKGRKWVIAW [Syn-safencin-64]
IC50 [1, 2]: 0.33 µM
THP-1 macrophage CC50 (THP-1 macrophages): < 20 µM

AGRQWLTLYLKEELRKRGKKAFIAW [Syn-xiamencin-49]
IC50 [1, 3]: 9.22 µM
THP-1 macrophage CC50 (THP-1 macrophages): < 20 µM

AGKKTIRQYLKNKIKKKGRKAVWAW [Syn-safencin-76]
IC50 [1, 2]: 16.3 µM
THP-1 macrophage CC50 (THP-1 macrophages): < 20 µM

AGRQALWKYLLEELRKRGKKAFIAW [Syn-xiamencin-44]
IC50 [1, 3]: 1.18 µM
THP-1 macrophage CC50 (THP-1 macrophages): < 20 µM

AGRQWLTLYLKEELRKRGKIAFKAW [Syn-xiamencin-54]
IC50 [1, 2]: 7.79 µM
THP-1 macrophage CC50 (THP-1 macrophages): < 20 µM

AWKKTIRQYLKNEIKKKWRKAVIAW [Syn-safencin-90]
IC50 [1, 2]: 2.6 µM
THP-1 macrophage CC50 (THP-1 macrophages): < 20 µM

WGKKTIRQYLKNEIKKKGRKAVIAW [Syn-safencin-10]
IC50 [1, 2]: 2.97 µM
THP-1 macrophage CC50 (THP-1 macrophages): below 20 μM

AGRQALTLYLKEELRKFGKKWRIAW [Syn-xiamencin-37]
IC50 [1, 3]: 3.71 µM
THP-1 macrophage CC50 (THP-1 macrophages): < 20 µM

AGANRLWKELLEYLRKFGKIARKAW [Syn-xiamencin-48]
IC50 [1, 3]: 2.18 µM
THP-1 macrophage CC50 (THP-1 macrophages): < 20 µM

AGKKTIRQYLKNEIKKKGRKAVIAW [Syn-safencin 2]
IC50 ([1]; 48 h): 2.42 ± 0.09 µM
THP-1 macrophage CC50 (THP-1 macrophages): > 20 µM
THP-1 macrophage CC50 (THP-1 macrophages; 48 h): >20 µM

AGSERIAKELKKYIKKGKKWIRAAW [Syn-enterocin-64]
IC50 [1, 2]: 0.42 µM
THP-1 macrophage CC50 (THP-1 macrophages): < 20 µM

AGKETIRQFLKKRIQEKGKRAKIAW [Syn-larvacin-93]
IC50 [1, 2]: 2.46 µM
THP-1 macrophage CC50 (THP-1 macrophages): < 20 µM

AGKEKIRQYWKNEIKKKGRKAVIAW [Syn-safencin-37]
IC50 [1, 2]: 5.21 µM
THP-1 macrophage CC50 (THP-1 macrophages): < 20 µM

AWKETIRQYLKNKIKKKGRKAVIAW [Syn-safencin-19]
IC50 [1, 2]: 0.38 µM
THP-1 macrophage CC50 (THP-1 macrophages): < 20 µM

AGRQWLTLYLKEELRKFGKKARIAW [Syn-xiamencin-53]
IC50 [1, 2]: 14.8 µM
THP-1 macrophage CC50 (THP-1 macrophages): < 20 µM

AGKKTIRQYLKNEIKKKGRKAVWAW [Syn-safencin-74]
IC50 [1, 2]: 3.51 µM
THP-1 macrophage CC50 (THP-1 macrophages): < 20 µM

AGTEKIFNRLKKWINEGKKIAKRAW [Syn-larvacin-32]
IC50 [1, 2]: 0.23 µM
THP-1 macrophage CC50 (THP-1 macrophages): < 20 µM

AWKETIRQYLKNEIKKKWRKAVIAW [Syn-safencin-89]
IC50 [1, 2]: 1.05 µM
THP-1 macrophage CC50 (THP-1 macrophages): < 20 µM

AGKETIRQYWKNKIKKKGRKAVIAW [Syn-safencin-35]
IC50 [1, 2]: 0.29 µM
THP-1 macrophage CC50 (THP-1 macrophages): < 20 µM

WGKETIRQYLKNKIKKKGRKAVIAW [Syn-safencin-11]
IC50 [1, 2]: 12.2 µM
THP-1 macrophage CC50 (THP-1 macrophages): below 20 μM

AGAQRLWKELLEYLRKFGKIARKAW [Syn-xiamencin-47]
IC50 [1, 3]: 2.68 µM
THP-1 macrophage CC50 (THP-1 macrophages): < 20 µM

AGKKTIRQYLKNKWKKKGRKAVIAW [Syn-safencin-44]
IC50 [1, 2]: 0.63 µM
THP-1 macrophage CC50 (THP-1 macrophages): < 20 µM

AWKKTIRQYLKNKIKKKWRKAVIAW [Syn-safencin-92]
IC50 [1, 2]: 0.9 µM
THP-1 macrophage CC50 (THP-1 macrophages): < 20 µM

AWKETIRKYLKNEIKKKGRKAVIAW [Syn-safencin-22]
IC50 [1, 2]: 1.18 µM
THP-1 macrophage CC50 (THP-1 macrophages): < 20 µM

AGRQALTKYLLEELRKRWKKAFIAW [Syn-xiamencin-20]
IC50 [1, 2]: 0.47 µM
THP-1 macrophage CC50 (THP-1 macrophages): < 20 µM

AWTEKIFQRLKKTIQEGKKIAKRAW [Syn-larvacin-39]
IC50 [1, 2]: 1.43 µM
THP-1 macrophage CC50 (THP-1 macrophages): < 20 µM

AGTEKIFQRLKKWIQEGKKIAKRAW [Syn-larvacin-31]
IC50 [1, 3]: 3.8 µM
THP-1 macrophage CC50 (THP-1 macrophages): < 20 µM

AGSERIAKELKKYIKKWKKVIRAAW [Syn-enterocin-48]
IC50 [1, 2]: 1.21 µM
THP-1 macrophage CC50 (THP-1 macrophages): < 20 µM
